Molecular target: T1, MHV E protein (Murine hepatitis virus strain A59, UniProt P0C2R0)
T1 sequence (P0C2R0 1-83): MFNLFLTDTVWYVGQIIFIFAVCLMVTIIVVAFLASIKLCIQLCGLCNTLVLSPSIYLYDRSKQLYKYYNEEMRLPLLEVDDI
Experiment: planar lipid bilayer current recording, dose titration
Format: biochemical

## N=C(N)NC(=O)c1nc(Cl)c(N2CCCCCC2)nc1N [HMA, Hexamethylene amiloride]
  EC50: 10.2 µM
